Measurements as given in patent publication US4507297A, “Piperazine derivatives and a medicine containing the same” (priority 1981, dated 1985).
Where a name gives a salt, the structure may show the parent alone. Read-outs that look alike come from different tables or passages of the source.

Tests used:
[1] = test system: experimental myocardial infarction; assay: Effects against an experimental myocardial infarction (anterior descending artery ligation, necrotic area by planimetry); assay type: in vivo, rabbit; details: for inhibition in vivo at 200 mg/kg: read-out: Inhibition rates (%), T = 200 mg/kg, i.v.
Experimental: The chest wall of each animal was incised under artificial respiration, and the anterior descending artery was ligated (about 7 mm downward of the starting portion). 24 Hours later, the heart was taken out, and a myocardium between the cadiac apex and the ligated portion was sliced to have a thickness of 2 mm and stained to distinguish the infarction-affected portions by a phosphorylase reaction, whereupon the area of the necrotic portion was calculated by planimetory. Medicinal substances were administered 5 minutes prior to the ligation (T/2 mg/kg, i.v.), continuously from immediately after the ligation to one hour later (T/4 mg/kg/hr, by constant dropping), 2 hours after the ligation (T/8 mg/kg, i.v.) and 3 hours after the ligation (T/8 mg/kg, i.v.). Each medicinal substance was administered in the form of a physiological sodium chloride solution. Where the substance was hardly soluble, it was used in the form of a salt. To a control group was administered only a physiological sodium chloride solution. (T means a total amount of administration.)

[2] = test system: mice; assay: in vivo; details: i.v., tail of mice
Experimental: (§1) Medicinal substances were administered intravenously from the tails of the mice.

[3] = in vivo; details: mouse, in vivo, iv, tail of mice
Experimental: as §1

[4] = Oryctolagus cuniculus, iv, 24 h, vs control 14.9 ± 0.7
[5] = T = 200 mg/kg, i.v., 8 cases, control 14.9 ± 0.7
[6] = Oryctolagus cuniculus, iv, 24 h, T = 40 mg/kg, i.v., vs control 14.1 ± 1.0, read-out: Inhibition rates (%)
[7] = T = 40 mg/kg, i.v., 8 cases, control 14.1 ± 1.0
[8] = Oryctolagus cuniculus, iv, 24 h, vs control 14.1 ± 1.0
[9] = T = 200 mg/kg, i.v., 8 cases, control 14.1 ± 1.0

CCN1CCN(C(=O)[C@H](CC(C)C)NC(=O)[C@@H]2O[C@H]2C(=O)[O-])CC1.[Na+]
inhibition in vivo at 200 mg/kg [1, 4]: 20.8%
Necrotic area (mean ± S.E. %) [1, 5]: 11.8 ± 0.9%
MLD (in column LD50 mice) [2]: > 1125 mg/kg

CCOC(=O)[C@H]1O[C@@H]1C(=O)N[C@@H](CC(C)C)C(=O)N1CCN(Cc2ccc(OC)c(OC)c2OC)CC1 [Compound 12, Ethyl (2S,3S)-3-[(s)-3-methyl-1-{4-(2,3,4-trimethoxyphenylmethyl)piperazine-1-ylcarbonyl}butylcarbamoyl]oxirane-2-carboxylate 1/2 sulfate]
inhibition in vivo at 40 mg/kg [1, 6]: 19.9%
Necrotic area (mean ± S.E. %) [1, 7]: 11.3 ± 1.2%
LD50 [3]: 345 mg/kg

CC(C)C[C@H](NC(=O)C1OC1C(=O)O)C(=O)N1CCN(C(c2ccccc2)c2ccccc2)CC1 (stereo partly drawn) [Compound 1]
inhibition in vivo at 80 mg/kg ([1]; Oryctolagus cuniculus, iv, 24 h, T = 80 mg/kg, i.v., vs control 14.9 ± 0.7, read-out: Inhibition rates (%)): 24.8%
Necrotic area (mean ± S.E. %) ([1]; T = 80 mg/kg, i.v., 8 cases, control 14.9 ± 0.7): 11.2 ± 0.5%
LD50 [3]: 174 mg/kg

CC(C)C[C@H](NC(=O)[C@@H]1O[C@H]1C(=O)[O-])C(=O)N1CCN(c2ncccn2)CC1.[Na+] [listing 1 of 2 here]
inhibition in vivo at 200 mg/kg [1, 4]: 25.5%
Necrotic area (mean ± S.E. %) [1, 5]: 11.1 ± 0.8%
MLD (in column LD50 mice) [2]: > 1125 mg/kg

COc1ccc(CCN(C)CCCC(C#N)(c2ccc(OC)c(OC)c2)C(C)C)cc1OC (racemic) [Verapanil hydrochloride, reference compound]
inhibition in vivo at 2 mg/kg ([1]; Oryctolagus cuniculus, iv, 24 h, read-out: Inhibition rates (%), T = 2 mg/kg, i.v., vs control 14.6 ± 1.0): 24.7%
Necrotic area (mean ± S.E. %) ([1]; T = 2 mg/kg, i.v., 7 cases (propranolol), 10 cases (verapanil), control 14.6 ± 1.0): 11.0 ± 1.3%

CCOC(=O)[C@@H]1O[C@H]1C(=O)N[C@@H](CC(C)C)C(=O)N1CCN(Cc2ccc(OC)c(OC)c2OC)CC1 [Compound 11, Ethyl (2R,3R)-3-[(s)-3-methyl-1-{4-(2,3,4-trimethoxyphenylmethyl)piperazine-1-ylcarbonyl}butylcarbamoyl]oxirane-2-carboxylate 1/2 sulfate]
inhibition in vivo at 40 mg/kg [1, 6]: 29.1%
Necrotic area (mean ± S.E. %) [1, 7]: 10.0 ± 1.0%
LD50 [3]: 374 mg/kg

CC(C)NCC(O)COc1cccc2ccccc12 (stereo not drawn) [Propranolol hydrochloride, reference compound]
inhibition in vivo at 1 mg/kg ([1]; Oryctolagus cuniculus, iv, 24 h, T = 1 mg/kg, i.v., vs control 14.6 ± 1.0, read-out: Inhibition rates (%)): 6.2%
inhibition in vivo at 2 mg/kg ([1]; Oryctolagus cuniculus, iv, 24 h, T = 2 mg/kg, i.v., vs control 14.6 ± 1.0, read-out: Inhibition rates (%)): 23.3%
inhibition in vivo at 4 mg/kg ([1]; Oryctolagus cuniculus, iv, 24 h, T = 4 mg/kg, i.v., vs control 14.6 ± 1.0, read-out: Inhibition rates (%)): 26.7%
Necrotic area (mean ± S.E. %) ([1]; T = 1 mg/kg, i.v., 8 cases, control 14.6 ± 1.0): 13.7 ± 1.1%

CC(C)C[C@H](NC(=O)[C@@H]1O[C@H]1C(=O)[O-])C(=O)N1CCN(c2ccccn2)CC1.[Na+]
inhibition in vivo at 200 mg/kg [1, 4]: 22.1%
Necrotic area (mean ± S.E. %) [1, 5]: 11.6 ± 0.7%
MLD (in column LD50 mice) [2]: > 1125 mg/kg

CCOC(=O)C1OC1C(=O)N[C@@H](CC(C)C)C(=O)N1CCN(Cc2ccc(OC)c(OC)c2OC)CC1 (stereo partly drawn) [Compound 10, Ethyl trans-3-[(s)-3-methyl-1-{4-(2,3,4-trimethoxyphenylmethyl)piperazine-1-ylcarbonyl}butylcarbamoyl]oxirane-2-carboxylate 1/2 sulfate]
inhibition in vivo at 40 mg/kg [1, 6]: 25.5%
Necrotic area (mean ± S.E. %) [1, 7]: 10.5 ± 1.1%

CC(C)C[C@H](NC(=O)[C@H]1O[C@@H]1C(=O)[O-])C(=O)N1CCN(c2ncccn2)CC1.[Na+]
inhibition in vivo at 200 mg/kg [1, 8]: 26%
Necrotic area (mean ± S.E. %) [1, 9]: 10.7 ± 0.4%
MLD (in column LD50 mice) [2]: > 1125 mg/kg

COc1ccc(CN2CCN(C(=O)[C@H](CC(C)C)NC(=O)C3OC3C(=O)OCC(C)C)CC2)c(OC)c1OC (stereo partly drawn) [Compound 9, Isobutyl trans-3-[(s)-3-methyl-1-{4-(2,3,4-trimethoxyphenylmethyl)piperazine-1-ylcarbonyl}butylcarbamoyl]oxirane-2-carboxylate 1/2 sulfate]
inhibition in vivo at 40 mg/kg [1, 6]: 18.4%
Necrotic area (mean ± S.E. %) [1, 7]: 11.5 ± 1.2%
LD50 [3]: 440 mg/kg

COc1ccc(CN2CCN(C(=O)[C@H](CC(C)C)NC(=O)[C@@H]3O[C@H]3C(=O)[O-])CC2)c(OC)c1OC.[Na+] [listing 1 of 2 here]
inhibition in vivo at 200 mg/kg [1, 4]: 29.5%
Necrotic area (mean ± S.E. %) [1, 5]: 10.5 ± 0.9%
MLD (in column LD50 mice) [2]: > 1125 mg/kg

COc1ccc(CN2CCN(C(=O)[C@H](CC(C)C)NC(=O)[C@@H]3O[C@H]3C(=O)[O-])CC2)c(OC)c1OC.[Na+] [listing 2 of 2 here]
inhibition in vivo at 200 mg/kg [1, 8]: 30.5%
Necrotic area (mean ± S.E. %) [1, 9]: 9.8 ± 0.9%

CC(C)C[C@H](NC(=O)[C@@H]1O[C@H]1C(=O)[O-])C(=O)N1CCN(c2ncccn2)CC1.[Na+] [listing 2 of 2 here]
inhibition in vivo at 200 mg/kg [1, 8]: 23%
Necrotic area (mean ± S.E. %) [1, 9]: 11.1 ± 0.7%

COc1ccc(CN2CCN(C(=O)[C@H](CC(C)C)NC(=O)[C@@H]3O[C@H]3C(=O)[O-])CC2)cc1.[Na+]
inhibition in vivo at 200 mg/kg [1, 4]: 20.1%
Necrotic area (mean ± S.E. %) [1, 5]: 11.9 ± 0.8%
MLD (in column LD50 mice) [2]: > 1125 mg/kg

COc1ccc(CN2CCN(C(=O)[C@H](CC(C)C)NC(=O)[C@H]3O[C@@H]3C(=O)[O-])CC2)c(OC)c1OC.[Na+]
inhibition in vivo at 200 mg/kg [1, 8]: 24.1%
Necrotic area (mean ± S.E. %) [1, 9]: 10.7 ± 0.9%
MLD (in column LD50 mice) [2]: > 1125 mg/kg

CC(C)C[C@H](NC(=O)[C@@H]1O[C@H]1C(=O)[O-])C(=O)N1CCN(CC=Cc2ccccc2)CC1.[Na+]
inhibition in vivo at 100 mg/kg ([1]; Oryctolagus cuniculus, iv, 24 h, read-out: Inhibition rates (%), T = 100 mg/kg, i.v., vs control 14.9 ± 0.7): 25.5%
Necrotic area (mean ± S.E. %) ([1]; T = 100 mg/kg, i.v., 8 cases, control 14.9 ± 0.7): 11.1 ± 0.6%
MLD (in column LD50 mice) [2]: 1000 to 1125 mg/kg

CC(C)C[C@H](NC(=O)[C@@H]1O[C@H]1C(=O)[O-])C(=O)N1CCN(Cc2ccccc2)CC1.[Na+]
inhibition in vivo at 200 mg/kg [1, 4]: 20.1%
Necrotic area (mean ± S.E. %) [1, 5]: 11.9 ± 0.6%
MLD (in column LD50 mice) [2]: > 1125 mg/kg
